Test results reported in patent US20080124809A1, “Method of Interaction Observation” (RIKEN, priority 2004, published 2008).

What was measured:
anti-DIG antibody = test: SPR imaging of anti-DIG antibody binding to the immobilized small molecular array; details: 4 J/cm^2; for binding of anti-DIG antibody to immobilized substance (FIG. 15): Comparative Example 2: irradiated at 245 nm, 50 μg/mL antibody run for 5 minutes; for binding of anti-DIG antibody to immobilized substance (FIG. 12): Example 1: photoimmobilized at 365 nm, 50 μg/mL antibody
anti-EST antibody = test: SPR imaging of anti-EST antibody binding to the immobilized small molecular array; details: Example 1: photoimmobilized at 365 nm, 4 J/cm^2; 50 μg/mL antibody

| SMILES | binding of anti-DIG antibody to immobilized substance (FIG. 15) (anti-DIG antibody) | binding of anti-DIG antibody to immobilized substance (FIG. 12) (anti-DIG antibody) | binding of anti-EST antibody to immobilized substance (FIG. 13) (anti-EST antibody) |
| --- | --- | --- | --- |
| C[C@H]1O[C@@H](O[C@H]2[C@@H](O)C[C@H](O[C@H]3[C@@H](O)C[C@H](O[C@H]4CC[C@@]5(C)[C@H](CC[C@@H]6[C@@H]5C[C@@H](O)[C@]5(C)[C@@H](C7=CC(=O)OC7)CC[C@]65O)C4)O[C@@H]3C)O[C@@H]2C)C[C@H](O)[C@@H]1O [DIG, digoxin] | observed | obvious | – |
| C[C@H]1O[C@@H](O[C@H]2[C@@H](O)C[C@H](O[C@H]3[C@@H](O)C[C@H](O[C@H]4CC[C@@]5(C)[C@H](CC[C@@H]6[C@@H]5CC[C@]5(C)[C@@H](C7=CC(=O)OC7)CC[C@]65O)C4)O[C@@H]3C)O[C@@H]2C)C[C@H](O)[C@@H]1O [DTN, digitoxin] | observed | obvious | – |
| C[C@]12CC[C@@H]3c4ccc(O)cc4CC[C@H]3[C@@H]1CC[C@@H]2O [EST, β-Estradiol] | – | – | bound to only the spots of EST |
| C[C@]12CCC(=O)C=C1CC[C@@H]1[C@@H]2[C@@H](O)C[C@@]2(C)[C@H]1CC[C@]2(O)C(=O)CO [HCN, Hydrocortisone] | – | – | No binding |
| CC(=O)[C@H]1CC[C@H]2[C@@H]3CCC4=CC(=O)CC[C@]4(C)[C@H]3CC[C@]12C [PGS, Progesterone] | – | – | No binding |
